Measured values as given in patent publication US20260364184A1, “COMPOUND BASED ON OXOISOINDOLINYL-SUBSTITUTED TETRAHYDROPYRIMIDINE-DIONE AND USE THEREOF” (GLUETACS THERAPEUTICS (SHANGHAI) CO., LTD., priority 2023, published 2026).

What was measured:
[1] = test system: Human myeloid monocytic leukemia cell line (MV-4-11); test: Inhibition of MV-4-11 cell proliferation (CellTiter luminescent viability); type: cell-based; settings: for inhibition at 0.01 µM / inhibition at 0.5 µM: Homo sapiens, MV4-11, Table IE3, CDK4/6 inhibitor-based, 96 hours; for inhibition at 0.01 µM: MV-4-11, 10 nM, read-out: Inhibition Rate at 10 nM (%); for inhibition at 0.5 µM: MV-4-11, 500 nM, read-out: Inhibition Rate at 500 nM (%); for IC50: Table IE1, CDK4/6 inhibitor-based, MV-4-11, 96 hours, read-out: Inhibitory activity (IC50, nM) on tumor cell proliferation, MV-4-11
Method in brief: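 Cells are seeded in 96-well plates, cultured at 37 °C, 5% CO2, and treated next day with 5-fold serial compound dilutions (stock series from 2000 μM; 0.5 μL into 100 μL medium). Viability is read by CellTiter-Meiluncell luminescence after the set exposure, and IC50 is taken from growth-inhibition curves.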

[2] = test system: Human lung cancer cell line (H292); test: Inhibition of H292 cell proliferation (CellTiter luminescent viability); type: cell-based; settings: NCI-H292, Table IE2, CDK4/6 inhibitor-based, 96 hours; for inhibition at 0.01 µM: H292, 10 nM, read-out: Inhibition Rate at 10 nM (%); for inhibition at 0.5 µM: H292, 500 nM, read-out: Inhibition Rate at 500 nM (%)
CDK4 = biological target: T1, CDK4 (Homo sapiens, UniProt P11802+Q96SW2); test: Western blot degradation of CDK4; type: cell-based; settings: MDA-MB-231 Cell; 24 hours
T1 construct: expression of target proteins in cells; endogenous in cells
Experimental: (§1) Conventional Western blot assay was performed to evaluate the effects of the compounds of the present disclosure on the expression of target proteins in cells.
(§2) (1) Cell Seeding and Protein Harvesting: The selected cells were processed according to the cell seeding procedure and protein harvesting procedure in Table II-2.
(§3) (2) To the collected supernatant, 5×SDS sample loading buffer was added, followed by denaturation at 95 °C for 5 minutes. The denatured samples were then separated by SDS-PAGE electrophoresis on a polyacrylamide gel. Proteins were transferred to a nitrocellulose membrane (0.45 μm NC membrane), blocked with blocking buffer at room temperature for 1 hour, and subjected to antibody incubation and development procedures according to the antibody manufacturer's instructions (Cell Signaling Technology).
(§4) Half-Maximal Degradation Concentration value (the drug concentration required for degrading proteins by 50%, abbreviated as DC50) reads method: comparing the grayscale values of Western blot bands from drug-treated samples with those from blank DMSO-treated controls, and identifying the drug concentration range at which the grayscale value is half that of the DMSO-treated control bands.
(§5) DC50 values can be calculated using ImageJ software to measure grayscale values of Western blot bands from drug-treated samples. The concentration-response curve is fitted to estimate the drug concentration corresponding to half the grayscale value.
(§6) Target protein remaining (%) refers to the percentage of target protein remaining in cells after treatment with protein degrader compounds.
(§7) Calculation method for target protein remaining (%): Use ImageJ software to measure grayscale values of Western blot bands from drug (protein degrader)-treated samples. The grayscale value of drug-treated bands is divided by that of internal control protein bands, and the resulting quotient is normalized to obtain the relative percentage of remaining target protein after protein degrader treatment.
(§8) Target protein degradation rate (%)=1−target protein remaining (%).

CDK6 = biological target: T2, CDK6 (Homo sapiens, UniProt Q00534+Q96SW2); test: Western blot degradation of CDK6; type: cell-based; settings: MDA-MB-231 Cell; 24 hours
T2 construct: expression of target proteins in cells; endogenous in cells
Experimental: as §1, §2, §3, §4, §5, §6, §7, §8

[3] = test system: Human large cell immunoblastic lymphoma cell line SR; test: Inhibition of SR cell proliferation (CellTiter luminescent viability); type: cell-based; settings: Table IE1, CDK4/6 inhibitor-based, 96 hours, read-out: Inhibitory activity (IC50, nM) on tumor cell proliferation, SR
Experimental: The tumor cells used herein were cultured in a cell culture medium listed in table 3 at 37 °C in an incubator with 5% CO2. Prior to experimentation, all cell lines used were correctly identified by STR profiling, and tested negative for mycoplasma contamination using a mycoplasma detection kit through routine screenings.
The IC50 values of the compounds of the present disclosure (including the compounds in Table 1, Table 2, and Examples 1-468) were determined using the CellTiter-Meiluncell Luminescent Cell Viability Assay Kit from Dalian Meilun Biotech Co., Ltd. The detailed procedure is as follows: Tumor cells were seeded in 96-well cell culture plates at the densities specified in Table 4. On the following day, the test compounds of the present disclosure were subjected to serial dilution. The dilution can be performed according to one of the following two methods: • (1) The first dilution method: The test compounds of the present disclosure (including the compounds in Table 1, Table 2, and Examples 1-468) were subjected to 5-fold serial dilutions starting from a highest concentration of 2000 μM, resulting in a total of 9 concentrations from high to low (2000, 400, 80, 16, 3.2, 0.64, 0.128, 0.0256, 0.00512 μM). Subsequently, 0.5 μL of the test compound dilution was transferred into the 96-well plate containing the cells, with each well containing 100 μL of cell culture medium. […] Into the 96-well plate, the diluted test compounds and corresponding detection reagents were added, resulting in final test compound concentrations of 500 nM and 10 nM, respectively. The experimental procedure is described below using the diluted 2 μM test compound as an example.
0.5 μL of the aforementioned diluted compound of the present disclosure (including the compounds in Table 1, Table 2, and Examples 1-468) was added to the seeded cells in 100 μL of medium, yielding a final test compound concentration of 10 nM. After the cells were treated with the compounds of the present disclosure for a specified period, the cell viability assay reagent was added to the culture medium according to the kit's instructions to determine cell viability. […] All controls were treated using the same procedure as the compounds of the present disclosure. The growth inhibition curves for the compounds of the present disclosure were plotted using Prism GraphPad software, and the IC50 values were calculated therefrom.

[4] = biological target: T3, human Cereblon WT GST-tagged protein (CRBN) (Homo sapiens, UniProt Q96SW2); test: CRBN binding by HTRF (Cereblon binding kit)
T3 construct: purchased CISBIO 64BDCRBNPEH
Method in brief: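 GST-tagged human Cereblon WT was incubated 3 h at room temperature with compound, thalidomide-Re tracer and Eu anti-GST antibody. Final compound concentrations were 10 to 0.00064 µM (7 points) or 2 and 0.5 µM. Inhibition rate was calculated from HTRF 665/620 nm ratios versus solvent and blank controls.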

[5] = test system: Human Acute T Lymphoblastic Leukemia Cells (Molt-4); test: Inhibition of Molt-4 cell proliferation (CellTiter luminescent viability); type: cell-based; settings: Table IE1, CDK4/6 inhibitor-based; Molt-4, 96 hours; read-out: Inhibitory activity (IC50, nM) on tumor cell proliferation, Molt-4
[6] = test system: Human acute lymphocytic leukemia T lymphocytes cell line (CCRF-CEM); test: Inhibition of CCRF-CEM cell proliferation (CellTiter luminescent viability); type: cell-based; settings: Table IE1, CDK4/6 inhibitor-based, 96 hours, read-out: Inhibitory activity (IC50, nM) on tumor cell proliferation, CCRF-CEM

T1 sequence (P11802 whole entry): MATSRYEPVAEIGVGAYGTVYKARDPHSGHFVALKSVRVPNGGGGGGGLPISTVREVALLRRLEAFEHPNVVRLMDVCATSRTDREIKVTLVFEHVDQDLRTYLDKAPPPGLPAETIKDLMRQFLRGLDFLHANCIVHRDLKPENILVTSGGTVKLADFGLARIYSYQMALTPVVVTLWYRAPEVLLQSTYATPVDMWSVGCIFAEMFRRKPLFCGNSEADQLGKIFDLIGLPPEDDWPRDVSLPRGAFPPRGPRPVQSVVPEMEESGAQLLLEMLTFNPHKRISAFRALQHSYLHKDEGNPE
T1 sequence (Q96SW2 whole entry): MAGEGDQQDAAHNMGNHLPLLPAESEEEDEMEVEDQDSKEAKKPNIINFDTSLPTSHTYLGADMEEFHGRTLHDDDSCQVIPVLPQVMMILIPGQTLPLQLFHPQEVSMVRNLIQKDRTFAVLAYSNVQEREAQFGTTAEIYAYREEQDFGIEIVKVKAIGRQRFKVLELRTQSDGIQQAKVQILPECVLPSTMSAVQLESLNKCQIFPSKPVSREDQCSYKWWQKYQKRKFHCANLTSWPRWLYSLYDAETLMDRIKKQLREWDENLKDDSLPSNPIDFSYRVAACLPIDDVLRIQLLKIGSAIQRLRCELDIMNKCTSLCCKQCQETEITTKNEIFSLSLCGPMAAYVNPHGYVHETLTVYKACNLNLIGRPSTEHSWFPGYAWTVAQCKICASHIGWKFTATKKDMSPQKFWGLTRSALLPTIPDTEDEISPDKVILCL
T1 sequence (Q16531 whole entry partner): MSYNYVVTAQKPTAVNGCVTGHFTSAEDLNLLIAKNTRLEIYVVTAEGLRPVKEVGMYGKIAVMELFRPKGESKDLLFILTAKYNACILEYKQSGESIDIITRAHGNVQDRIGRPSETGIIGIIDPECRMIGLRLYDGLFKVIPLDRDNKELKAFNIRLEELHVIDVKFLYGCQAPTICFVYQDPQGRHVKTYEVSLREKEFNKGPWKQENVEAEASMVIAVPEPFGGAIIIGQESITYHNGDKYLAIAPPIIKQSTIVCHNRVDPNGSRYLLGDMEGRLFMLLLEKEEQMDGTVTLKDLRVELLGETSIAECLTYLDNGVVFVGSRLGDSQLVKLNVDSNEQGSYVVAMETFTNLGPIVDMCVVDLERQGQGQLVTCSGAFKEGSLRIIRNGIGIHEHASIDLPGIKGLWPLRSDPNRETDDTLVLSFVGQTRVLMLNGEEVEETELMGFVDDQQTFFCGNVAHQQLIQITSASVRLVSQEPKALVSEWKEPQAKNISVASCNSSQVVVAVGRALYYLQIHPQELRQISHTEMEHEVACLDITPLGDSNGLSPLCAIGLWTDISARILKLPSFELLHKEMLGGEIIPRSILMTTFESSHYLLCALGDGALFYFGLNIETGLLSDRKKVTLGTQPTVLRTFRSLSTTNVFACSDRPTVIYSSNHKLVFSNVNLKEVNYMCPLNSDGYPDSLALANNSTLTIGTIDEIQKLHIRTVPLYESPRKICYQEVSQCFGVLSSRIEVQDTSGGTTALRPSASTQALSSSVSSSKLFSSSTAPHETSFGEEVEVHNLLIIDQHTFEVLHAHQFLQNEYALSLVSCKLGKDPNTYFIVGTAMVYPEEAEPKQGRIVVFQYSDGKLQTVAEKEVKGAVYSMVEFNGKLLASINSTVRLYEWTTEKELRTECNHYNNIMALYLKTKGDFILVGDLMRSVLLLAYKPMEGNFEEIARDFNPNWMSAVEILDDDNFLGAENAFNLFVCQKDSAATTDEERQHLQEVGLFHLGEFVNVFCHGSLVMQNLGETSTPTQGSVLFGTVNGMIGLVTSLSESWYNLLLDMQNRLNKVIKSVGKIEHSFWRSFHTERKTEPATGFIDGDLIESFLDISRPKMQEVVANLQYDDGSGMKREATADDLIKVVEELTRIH
T2 sequence (Q00534 whole entry): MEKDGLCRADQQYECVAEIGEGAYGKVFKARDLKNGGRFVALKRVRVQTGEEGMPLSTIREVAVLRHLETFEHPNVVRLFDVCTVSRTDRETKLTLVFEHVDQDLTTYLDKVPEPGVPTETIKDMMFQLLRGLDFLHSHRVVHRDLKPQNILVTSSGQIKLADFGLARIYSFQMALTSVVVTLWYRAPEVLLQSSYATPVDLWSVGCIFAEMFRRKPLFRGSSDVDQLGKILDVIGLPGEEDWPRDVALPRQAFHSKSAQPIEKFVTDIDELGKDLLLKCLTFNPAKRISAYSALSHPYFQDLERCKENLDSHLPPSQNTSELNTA
T2 sequence (Q96SW2 whole entry): as the sequence (Q96SW2 whole entry) above
T2 sequence (Q16531 whole entry partner): as the sequence (Q16531 whole entry partner) above
T3 sequence (Q96SW2 whole entry): as the sequence (Q96SW2 whole entry) above

| Compound | Degradation of substrate protein CDK6 (substrate protein remaining %) (CDK6) | IC50 [3] [nM] | IC50 [1] [nM] | Inhibition Rate at 0.5 μM (%) ([4]; 0.5 μM) | Inhibition Rate at 2 μM (%) ([4]; 2 μM) | IC50 [5] [nM] | IC50 [6] [nM] | inhibition at 0.01 µM [1] [%] | inhibition at 0.5 µM [1] [%] | inhibition at 0.01 µM [2] [%] | inhibition at 0.5 µM [2] [%] | Degradation of substrate protein CDK4 (substrate protein remaining %) (CDK4) |
| --- | --- | --- | --- | --- | --- | --- | --- | --- | --- | --- | --- | --- |
| CC(=O)c1c(C)c2cnc(Nc3ccc(N4CCN(Cc5ccc6c(c5)CN(N5CCC(=O)NC5=O)C6=O)CC4)cn3)nc2n(C2CCCC2)c1=O [GT-06573, 1-(5-((4-(6-((6-acetyl-8-cyclopentyl-5-methyl-7-oxo-7,8-dihydropyrido[2,3-d]pyrimidin-2-yl)amino)pyridin-3-yl)piperazin-1-yl)methyl)-1-oxoisoindolin-2-yl)dihydropyrimidine-2,4 (1H,3H)-dione] | A (0%≤substrate protein remaining %≤80%) |  |  |  |  |  |  | 40 to 60 | 60 to 80 | 30 to 35 | 40 to 60 | B (80%<substrate protein remaining %≤100%) |
| Cc1nc2c(F)cc(-c3nc(Nc4ccc(CN5CCN(CC6CCN(c7cccc8c7C(=O)N(N7CCC(=O)NC7=O)C8=O)CC6)CC5)cn4)ncc3F)cc2n1C(C)C [GT-06663, 2-(2,4-dioxotetrahydropyrimidin-1(2H)-yl)-4-(4-((4-((6-((5-fluoro-4-(4-fluoro-1-isopropyl-2-methyl-1H-benzo[d]imidazol-6-yl)pyrimidin-2-yl)amino)pyridin-3-yl)methyl)piperazin-1-yl)methyl)piperidin-1-yl)isoindoline-1,3-dione] | A (0%≤substrate protein remaining %≤80%) | 400 to 800 | 10 to 50 | a2 (20% < a2 ≤ 30%) | a5 (53% < a5 ≤ 60%) |  |  |  |  |  |  | B (80%<substrate protein remaining %≤100%) |
| Cc1nc2c(F)cc(-c3nc(Nc4ccc(N5CCC(N(C)CC6CCN(c7cccc8c7C(=O)N(N7CCC(=O)NC7=O)C8=O)CC6)CC5)cn4)ncc3F)cc2n1C(C)C [GT-06734, 2-(2,4-dioxotetrahydropyrimidin-1(2H)-yl)-4-(4-(((1-(6-((5-fluoro-4-(4-fluoro-1-isopropyl-2-methyl-1H-benzo[d]imidazol-6-yl)pyrimidin-2-yl)amino)pyridin-3-yl)piperidin-4-yl)(methyl)amino)methyl)piperidin-1-yl)isoindoline-1,3-dione] | A (0%≤substrate protein remaining %≤80%) | 100 to 300 | 50 to 100 |  |  | 400 to 800 | 400 to 800 |  |  |  |  | A (0%≤substrate protein remaining %≤80%) |
| Cc1nc2c(F)cc(-c3nc(Nc4ccc(N5CCC(N6CCN(Cc7ccc8c(c7)C(=O)N(N7CCC(=O)NC7=O)C8=O)CC6)CC5)cn4)ncc3F)cc2n1C(C)C [GT-06737, 2-(2,4-dioxotetrahydropyrimidin-1(2H)-yl)-5-((4-(1-(6-((5-fluoro-4-(4-fluoro-1-isopropyl-2-methyl-1H-benzo[d]imidazol-6-yl)pyrimidin-2-yl)amino)pyridin-3-yl)piperidin-4-yl)piperazin-1-yl)methyl)isoindoline-1,3-dione] | A (0%≤substrate protein remaining %≤80%) | 100 to 300 | 300 to 400 |  |  |  |  |  |  |  |  | B (80%<substrate protein remaining %≤100%) |

More lines, main results first:

| Degradation of substrate protein CDK6 (substrate protein remaining %) (CDK6) | IC50 [3] [nM] | IC50 [1] [nM] | Inhibition Rate at 0.5 μM (%) ([4]; 0.5 μM) | Inhibition Rate at 2 μM (%) ([4]; 2 μM) | IC50 [5] [nM] | IC50 [6] [nM] | Compound | inhibition at 0.01 µM [1] [%] | inhibition at 0.5 µM [1] [%] | inhibition at 0.01 µM [2] [%] | inhibition at 0.5 µM [2] [%] | Degradation of substrate protein CDK4 (substrate protein remaining %) (CDK4) |
| --- | --- | --- | --- | --- | --- | --- | --- | --- | --- | --- | --- | --- |
| A (0%≤substrate protein remaining %≤80%) |  |  |  |  |  |  | CN(C)C(=O)c1cc2cnc(Nc3ccc(N4CCC(CN5C6CCC5CN(c5ccc7c(c5)C(=O)N(N5CCC(=O)NC5=O)C7=O)C6)CC4)cn3)nc2n1C1CCCC1 [GT-05812, 7-cyclopentyl-2-((5-(4-((3-(2-(2,4-dioxotetrahydropyrimidin-1(2H)-yl)-1,3-dioxoisoindolin-5-yl)-3,8-diazabicyclo[3.2.1]octan-8-yl)methyl)piperidin-1-yl)pyridin-2-yl)amino)-N,N-dimethyl-7H-pyrrolo[2,3-d]pyrimidine-6-carboxamide] | 15 to 20 | 40 to 60 | 35 to 40 | 30 to 35 | B (80%<substrate protein remaining %≤100%) |
| A (0%≤substrate protein remaining %≤80%) |  |  |  |  |  |  | CN(C)C(=O)c1cc2cnc(Nc3ccc(N4CCC(N(C)CC5CCN(c6ccc7c(c6)C(=O)N(N6CCC(=O)NC6=O)C7=O)CC5)CC4)cn3)nc2n1C1CCCC1 [GT-06489, 7-cyclopentyl-2-((5-(4-(((1-(2-(2,4-dioxotetrahydropyrimidin-1(2H)-yl)-1,3-dioxoisoindolin-5-yl)piperidin-4-yl)methyl)(methyl)amino)piperidin-1-yl)pyridin-2-yl)amino)-N,N-dimethyl-7H-pyrrolo[2,3-d]pyrimidine-6-carboxamide] | 25 to 30 | 40 to 60 | 30 to 35 | 40 to 60 | A (0%≤substrate protein remaining %≤80%) |
| A (0%≤substrate protein remaining %≤80%) | 100 to 300 | 10 to 50 |  |  | 100 to 300 | 100 to 300 | Cc1nc2c(F)cc(-c3nc(Nc4ccc(N5CCC(N(C)CC6CCN(c7ccc8c(c7)C(=O)N(N7CCC(=O)NC7=O)C8=O)CC6)CC5)cn4)ncc3F)cc2n1C(C)C [GT-06733, 2-(2,4-dioxotetrahydropyrimidin-1(2H)-yl)-5-(4-(((1-(6-((5-fluoro-4-(4-fluoro-1-isopropyl-2-methyl-1H-benzo[d]imidazol-6-yl)pyrimidin-2-yl)amino)pyridin-3-yl)piperidin-4-yl)(methyl)amino)methyl)piperidin-1-yl)isoindoline-1,3-dione] |  |  |  |  | A (0%≤substrate protein remaining %≤80%) |
